# Test results taken from patent US9512132B2, “Pyrazole compounds as CB2 agonists” (Hoffmann-La Roche Inc., priority 2013, dated 2016).
# Like-named read-outs stand apart in the source and are kept apart here.
# Experiments:
# human CB2 receptor = human CB2 receptor (Homo sapiens (Human), UniProt P34972); assay: cAMP assay, CHO cells expressing human CB2 receptors; assay type: cell-based
# Procedure: (§1) CHO cells expressing human CB1 or CB2 receptors are seeded 17-24 hours prior to the experiment 50.000 cells per well in a black 96 well plate with flat clear bottom (Corning Costar #3904) in DMEM (Invitrogen No. 31331), lx HT supplement, with 10% fetal calf serum and incubated at 5% CO2 and 37° C. in a humidified incubator. The growth medium was exchanged with Krebs Ringer Bicarbonate buffer with 1 mM IBMX and incubated at 30° C. for 30 min. Compounds were added to a final assay volume of 100 μl and incubated for 30 min at 30° C. Using the cAMP-Nano-TRF detection kit the assay (Roche Diagnostics) was stopped by the addition of 50 μl lysis reagent (Tris, NaCl, 1.5% Triton X100, 2.5% NP40, 10% NaN3) and 50 μl detection solutions (20 μM mAb Alexa700-cAMP 1:1, and 48 μM Ruthenium-2-AHA-cAMP) and shaken for 2 h at room temperature. The time-resolved energy transfer is measured by a TRF reader (Evotec Technologies GmbH), equipped with a ND:YAG laser as excitation source. The plate is measured twice with the excitation at 355 nm and at the emission with a delay of 100 ns and a gate of 100 ns, total exposure time 10 s at 730 (bandwidth 30 nm) or 645 nm (bandwidth 75 nm), respectively. The FRET signal is calculated as follows: FRET=T730-Alexa730-P(T645-B645) with P=Ru730-B730/Ru645-B645, where T730 is the test well measured at 730 nM, T645 is the test well measured at 645 nm, B730 and B645 are the buffer controls at 730 nm and 645 nm, respectively. cAMP content is determined from the function of a standard curve spanning from 10 μM to 0.13 nM cAMP.
# (§2) EC50 values were determined using Activity Base analysis (ID Business Solution, Limited). The EC50 values for a wide range of cannabinoid agonists generated from this assay were in agreement with the values published in the scientific literature.
# human CB1 receptor = human CB1 receptor (Homo sapiens (Human), UniProt P21554); assay: cAMP assay, CHO cells expressing human CB1 receptors; assay type: cell-based
# Procedure: as §1, §2
# [1] = functional cAMP assay, CHO cells expressing human CB2, read-out: human CB2 EC50
# [2] = functional cAMP assay, CHO cells expressing human CB1, read-out: human CB1 EC50
# Chain of human CB2 receptor (P34972 whole entry): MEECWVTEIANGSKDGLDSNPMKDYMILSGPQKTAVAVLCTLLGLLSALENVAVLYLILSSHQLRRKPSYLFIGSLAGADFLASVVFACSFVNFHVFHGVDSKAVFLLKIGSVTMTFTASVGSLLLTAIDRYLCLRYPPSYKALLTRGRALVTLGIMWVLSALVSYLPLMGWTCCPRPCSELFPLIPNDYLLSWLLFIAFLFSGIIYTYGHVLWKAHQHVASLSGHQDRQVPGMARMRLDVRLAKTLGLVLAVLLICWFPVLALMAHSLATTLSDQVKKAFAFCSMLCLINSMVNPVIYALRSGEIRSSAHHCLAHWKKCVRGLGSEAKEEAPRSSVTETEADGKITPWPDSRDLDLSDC
# Chain of human CB1 receptor (P21554 whole entry): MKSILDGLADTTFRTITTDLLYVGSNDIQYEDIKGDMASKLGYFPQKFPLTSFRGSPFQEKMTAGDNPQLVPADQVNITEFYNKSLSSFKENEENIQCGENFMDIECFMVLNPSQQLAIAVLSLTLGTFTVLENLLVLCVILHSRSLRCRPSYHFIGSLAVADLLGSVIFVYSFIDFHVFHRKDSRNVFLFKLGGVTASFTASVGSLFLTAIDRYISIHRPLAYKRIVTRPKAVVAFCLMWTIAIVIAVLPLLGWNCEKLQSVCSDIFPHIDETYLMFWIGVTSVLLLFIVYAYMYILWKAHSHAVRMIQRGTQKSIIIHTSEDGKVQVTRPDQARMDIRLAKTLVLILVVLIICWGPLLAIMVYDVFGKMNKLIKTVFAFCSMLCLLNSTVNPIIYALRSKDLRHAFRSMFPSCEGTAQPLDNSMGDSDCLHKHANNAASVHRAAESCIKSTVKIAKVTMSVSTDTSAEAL
Structure (SMILES),EC50 (human CB2 receptor; [1]) [nM],EC50 (human CB1 receptor; [2]) [nM],EC50 (human CB2 receptor) [nM],EC50 (human CB1 receptor) [nM]
"COc1ccc(Cn2ncc3c(N4CCC(F)(F)C4)nc(C(C)(C)C)nc32)cc1 [Example 1, 6-tert-Butyl-4-(3,3-difluoro-pyrrolidin-1-yl)-[(4-methoxyphenyl)methyl]-1H-pyrazolo[3,4-d]pyrimidine]",4.8,> 10000,,
"CC(C)(C)c1nc(N2CCC(F)(F)C2)c2cnn(Cc3ccccc3)c2n1 [Example 2, 1-Benzyl-6-tert-butyl-4-(3,3-difluoro-pyrrolidin-1-yl)-1H-pyrazolo[3,4-d]pyrimidine]",3.3,> 10000,,
"CC(C)(C)c1nc(N2CC[C@H](O)C2)c2cnn(Cc3ccccc3Cl)c2n1 [Example 3, (S)-1-[6-tert-Butyl-1-[(2-chlorophenyl)methyl]-1H-pyrazolo[3,4-d]pyrimidin-4-yl]-pyrrolidin-3-ol]",5.1,> 10000,,
"CC(C)(C)c1nc(N2CCC(F)(F)C2)c2cnn(Cc3ccccc3Cl)c2n1 [Example 4, 6-tert-Butyl-1-[(2-chlorophenyl)methyl]-4-(3,3-difluoro-pyrrolidin-1-yl)-1H-pyrazolo[3,4-d]pyrimidine]",4.2,> 10000,,
"CCOc1nc(C(C)(C)C)nc2c1cnn2Cc1ccccc1Cl [Example 5, 6-tert-Butyl-1-[(2-chlorophenyl)methyl]-4-ethoxy-1H-pyrazolo[3,4-d]pyrimidine]",25.5,> 10000,,
"CC(C)(C)c1nc(N2CCC(F)(F)C2)c2cnn(Cc3ccc(F)cc3Cl)c2n1 [Example 6, 6-tert-Butyl-1-[(2-chloro-4-fluorophenyl)methyl]-4-(3,3-difluoro-pyrrolidin-1-yl)-1H-pyrazolo[3,4-d]pyrimidine]",5.9,> 10000,,
"CC(C)(C)c1nc(N2CCC(F)(F)C2)c2cnn(Cc3ccccc3C(F)(F)F)c2n1 [Example 7, 6-tert-Butyl-4-(3,3-difluoro-pyrrolidin-1-yl)-1-[(2-trifluoromethylphenyl)methyl]-1H-pyrazolo[3,4-d]pyrimidine]",1.1,> 10000,,
"CC(C)(C)c1nc(N2CCC(F)(F)C2)c2cnn(CCc3ccccc3)c2n1 [Example 8, 6-tert-Butyl-4-(3,3-difluoro-pyrrolidin-1-yl)-1-phenethyl-1H-pyrazolo[3,4-d]pyrimidine]",5.4,> 10000,,
"Cc1nonc1Cn1ncc2c(N3CCC(F)(F)C3)nc(C(C)(C)C)nc21 [Example 9, 6-tert-Butyl-4-(3,3-difluoro-pyrrolidin-1-yl)-1-(4-methyl-furazan-3-ylmethyl)-1H-pyrazolo[3,4-d]pyrimidine]",0.5,> 10000,,
"CC(C)(C)c1nc(N2CCC(F)(F)C2)c2cnn(Cc3ccccc3S(C)(=O)=O)c2n1 [Example 10, 6-tert-Butyl-4-(3,3-difluoro-pyrrolidin-1-yl)-1-(2-methanesulfonyl-benzyl)-1H-pyrazolo[3,4-d]pyrimidine]",0.7,337,,
"CC(C)(C)c1nc(N2CCC(F)(F)C2)c2cnn(Cc3cccnc3Cl)c2n1 [Example 12, 6-tert-Butyl-1-(2-chloro-pyridin-3-ylmethyl)-4-(3,3-difluoro-pyrrolidin-1-yl)-1H-pyrazolo[3,4-d]pyrimidine]",1.6,1570,,
"CC(C)(C)c1nc(N2CCC(F)(F)C2)c2cnn(C3CS(=O)(=O)C3)c2n1 [Example 13, 6-tert-Butyl-4-(3,3-difluoro-pyrrolidin-1-yl)-1-(1,1-dioxo-1λ^6-thietan-3-yl)-1H-pyrazolo[3,4-d]pyrimidine]",19.6,> 10000,,
"CC(C)(C)c1nc(N2CCC(F)(F)C2)c2cnn(C3CCOC3)c2n1 (stereo not drawn) [Example 14, 6-tert-Butyl-4-(3,3-difluoro-pyrrolidin-1-yl)-1-(tetrahydro-furan-3-yl)-1H-pyrazolo[3,4-d]pyrimidine]",1.3,> 10000,,
"Cn1nnnc1Cn1ncc2c(N3CCC(F)(F)C3)nc(C(C)(C)C)nc21 [Example 15, 6-tert-Butyl-4-(3,3-difluoro-pyrrolidin-1-yl)-1-(1-methyl-1H-tetrazol-5-ylmethyl)-1H-pyrazolo[3,4-d]pyrimidine]",0.9,> 10000,,
"CC(C)(C)c1nc(N2CCC(F)(F)C2)c2cnn(Cc3nnnn3C3CC3)c2n1 [Example 16, 6-tert-Butyl-1-(1-cyclopropyl-1H-tetrazol-5-ylmethyl)-4-(3,3-difluoro-pyrrolidin-1-yl)-1H-pyrazolo[3,4-d]pyrimidine]",0.6,> 10000,,
"Cc1nnc(Cn2ncc3c(N4CCC(F)(F)C4)nc(C(C)(C)C)nc32)n1C [Example 17, 6-tert-Butyl-4-(3,3-difluoro-pyrrolidin-1-yl)-1-(4,5-dimethyl-4H-[1,2,4]triazol-3-ylmethyl)-1H-pyrazolo[3,4-d]pyrimidine]",3,> 10000,,
"Cc1nnc(Cn2ncc3c(N4CC=C(F)C4)nc(C(C)(C)C)nc32)n1C [Example 18, 6-tert-Butyl-1-(4,5-dimethyl-4H-[1,2,4]triazol-3-ylmethyl)-4-(3-fluoro-2,5-dihydro-pyrrol-1-yl)-1H-pyrazolo[3,4-d]pyrimidine]",26.2,> 10000,,
"Cn1nncc1Cn1ncc2c(N3CCC(F)(F)C3)nc(C(C)(C)C)nc21 [Example 19, 6-tert-Butyl-4-(3,3-difluoro-pyrrolidin-1-yl)-1-(3-methyl-3H-[1,2,3]triazol-4-ylmethyl)-1H-pyrazolo[3,4-d]pyrimidine]",,,1.4,> 10000
"Cn1nncc1Cn1ncc2c(N3CC=C(F)C3)nc(C(C)(C)C)nc21 [Example 20, 6-tert-Butyl-4-(3-fluoro-2,5-dihydro-pyrrol-1-yl)-1-(3-methyl-3H-[1,2,3]triazol-4-ylmethyl)-1H-pyrazolo[3,4-d]pyrimidine]",1.6,> 10000,,
"CC(C)(C)c1nc(N2CCC(F)(F)C2)c2cnn(CC(=O)c3ccncc3)c2n1 [Example 21, 2-[6-tert-Butyl-4-(3,3-difluoro-pyrrolidin-1-yl)-pyrazolo[3,4-d]pyrimidin-1-yl]-1-pyridin-4-yl-ethanone]",3.4,> 10000,,
"CC(C)(C)c1nc(N2CCC(F)(F)C2)c2cnn(CC(=O)c3ccccn3)c2n1 [Example 22, 2-[6-tert-Butyl-4-(3,3-difluoro-pyrrolidin-1-yl)-pyrazolo[3,4-d]pyrimidin-1-yl]-1-pyridin-2-yl-ethanone]",8.4,> 10000,,
"COc1ccc(Cn2ncc3c(N4CC[C@H](O)C4)nc(C(C)(C)C)nc32)cc1 [Example 23, (S)-1-[6-tert-Butyl-1-[(4-methoxyphenyl)methyl]-1H-pyrazolo[3,4-d]pyrimidin-4-yl]-pyrrolidin-3-ol]",5.5,> 10000,,
"COc1ccc(Cn2ncc3c(N4CCC(F)(F)C4)cc(C4CC4)nc32)cc1 [Example 24, 6-Cyclopropyl-4-(3,3-difluoro-pyrrolidin-1-yl)-1-[(4-methoxyphenyl)methyl]-1H-pyrazolo[3,4-b]pyridine]",17.5,> 10000,,
"Cc1nonc1Cn1ncc2c(N3CC[C@H](O)C3)nc(C(C)(C)C)nc21 [Example 25, (S)-1-[6-tert-Butyl-1-(4-methyl-furazan-3-ylmethyl)-1H-pyrazolo[3,4-d]pyrimidin-4-yl]-pyrrolidin-3-ol]",0.4,> 10000,,
